Test results: article PMC10606064, “2-Aminothiazole-Flavonoid Hybrid Derivatives Binding to Tau Protein and Responsible for Antitumor Activity in Glioblastoma” (International Journal of Molecular Sciences, 2023)
Read-outs that look alike come from different tables or passages of the source.

Assays:
U87 shCTRL cells [1] = experiment: Cell cycle by flow cytometry (propidium iodide), U87 shCTRL; assay type: cell-based, human; settings: 48 h, compounds 10 µM, NOC 1 µM
Protocol: (§1) Measurements of cell cycle from DNA content were performed by flow cytometry as described before. Briefly, 4.10^5 cells in exponential growth were seeded in 6-well plates. After 24 h, they were treated with 10 µM of compounds for 48 h. Nocodazole was used as a positive control with a concentration of 1 µM. The trypsinized cells were harvested and then centrifuged (1200 rpm, 5 min, at room temperature). The cell pellet was resuspended in 1 mL of PBS 1× at 4 °C, and then an extra 4 mL of cold PBS was added to wash the pellet. Cells were then centrifuged again (1200 rpm, 5 min, at 4 °C). To fixate the cells, the pellet was resuspended in 100 µL of cold 70% ethanol, then an additional 900 µL was added and cells were incubated for 30 min at −20 °C. After that, 9 mL of cold PBS was added, and cells were centrifuged (2000 rpm, 5 min, at 4 °C) to remove ethanol. The cell pellet was then resuspended in the staining mix containing 50 µg.mL^−1 of propidium iodide (Molecular Probes, Paris, France) and 100 µg.mL^−1 of RNAse A (Sigma-Aldrich, Saint-Quentin-Fallavier, France) in PBS for 20 min at room temperature in darkness. Samples were analyzed on a Beckman–Coulter–Gallios flow cytometer using the Kaluza for Gallios Acquisition v1.0 software. Propidium iodide was excited at 488 nm, and fluorescence was analyzed at 620 nm on channel FL-3. For the analysis, there is considerable overlap between early S phase and G1 and between late S phase and G2/M due to broadening of the distribution caused by variability in the staining of the cells and instrumental variability. Therefore, the percentages of cells in the sub-G1, G1, S, and G2/M phases of the cell cycle were calculated using the Watson et al. algorithm for cell cycle analysis in Kaluza for Gallios Analysis v2.1 software. The software automatically adjusted gates based on PI median fluorescence intensity of the cells and their frequency among total cells. The number of cells in each phase was divided by the total number of analyzed cells, and the values were reported as percentage of the total cells for each cell cycle phase.

U87 shTau cells [2] = experiment: Mitotic index by high-content imaging, U87 shTau; assay type: cell-based, human; settings: 48 h, 5-times IC50 of compounds
Protocol: (§2) For scoring mitotic indexes, an automated high-content screening confocal microscopy approach was employed to identify cells undergoing mitosis from a large population of cells. For this, cells nuclei were stained with DAPI. Briefly, fibronectin-coated clear-glass-bottom black 96-well imaging plates were seeded with 100 µL of cell suspension (60,000 cell.mL^−1) in each well, with both U87 shCTRL and U87 ShTau cell lines. Cells were treated with 5-times IC50 of compounds for 48 h, then they were fixated inside the palates with 4% formaldehyde (in PBS pH 7.4) for 20 min at room temperature, permeabilized with PBS-Triton X-100 0.5% for 10 min at room temperature. DNA was then stained with DAPI (10 µg.mL^−1) for 5 min at room temperature and in the darkness. After being washed, cells were kept in PBS at 4 °C and imaged while in PBS. Automated confocal microscopy was carried out using an Opera Phenix (PerkinElmer) high-content screening microscope using a 20× Air/0.4 NA air objective. For each condition, 6 wells were prepared and a total of 61 fields were acquired for each well. Image analysis was performed using Harmony high-content analysis v4.8 software and PhenoLOGIC Machine Learning technology, which uses a learn-by-example approach. As a first step, nuclei were segmented and multiple parameters for these nuclei were calculated using Harmony v4.8 software building blocks. After training, PhenoLOGIC Machine Learning then selects the best parameters to detect nuclei undergoing the M phase of mitosis. From this, the mitotic index of each condition was calculated by dividing the number of cells undergoing mitosis over the total number of cells.

U87 shCTRL cells [3] = experiment: Mitotic index by high-content imaging, U87 shCTRL; assay type: cell-based, human; settings: 48 h, 5-times IC50 of compounds
Protocol: as §2

U87 shTau cells [4] = experiment: Cell cycle by flow cytometry (propidium iodide), U87 shTau; assay type: cell-based, human; settings: 48 h, compounds 10 µM, NOC 1 µM
Protocol: as §1

R3 peptide = test system: R3 peptide; set-up: method as in PMID 34743390; settings: 10 µM, AFM analysis; cited from earlier work
T98G glioblastoma cells = experiment: MTT cell viability assay, T98G; assay type: cell-based; settings: Homo sapiens, 72 h, mean ± SEM, read-out: IC50 (metabolic activity)
Protocol: (§3) Cells harvested from sub-confluent monolayers were seeded at 15,000 cells per mL in a 96-well microtiter plate (Cambridge Technology, Labège, France) and cultured for 24 h under standard conditions. Standard medium was then replaced by fresh medium containing no drugs or compounds at different concentrations. The surviving cells were quantified after 72 h by the MTT assay, according to the manufacturer’s instructions. Briefly, 20 µL of 3-(4,5-diMethylThiazol-2-yl)-2,5diphenyl Tetrazolium bromide (MTT) solution at 5 mg.mL^−1 was added to cells for 3 h at 37 °C. The supernatant was discarded and replaced by 100 µL of dimethyl sulfoxide to dissolve formazan crystals. The absorbance was then read at 600 nm by spectrophotometry. For all concentrations of a given compound, cell viability was expressed as the percentage of the ratio between the mean absorbance of treated cells and the mean absorbance of untreated cells. Three independent experiments were performed, and the data were expressed as percentage of survival (using the untreated cells as 100%) and subjected to statistical analysis (n = 3). The IC50 was calculated using the Chou and Talalay method.

[5] = target: T1, Tau protein (full-length human Tau, hTau40) (Homo sapiens, UniProt P10636); experiment: Tau intrinsic fluorescence quenching, modified Stern–Volmer binding parameters; settings: 5 µM Tau, buffer B pH 6.8, mean ± SD; for Kd: read-out: Equilibrium Binding Constants to Tau, KD
T1 construct: The full-length human Tau (hTau40) was expressed in a transformed E. coli BL21 (DE3) strain; made in house; host or cells: E. coli BL21 (DE3)
T1 sequence (P10636 1-441 isoform P10636-8): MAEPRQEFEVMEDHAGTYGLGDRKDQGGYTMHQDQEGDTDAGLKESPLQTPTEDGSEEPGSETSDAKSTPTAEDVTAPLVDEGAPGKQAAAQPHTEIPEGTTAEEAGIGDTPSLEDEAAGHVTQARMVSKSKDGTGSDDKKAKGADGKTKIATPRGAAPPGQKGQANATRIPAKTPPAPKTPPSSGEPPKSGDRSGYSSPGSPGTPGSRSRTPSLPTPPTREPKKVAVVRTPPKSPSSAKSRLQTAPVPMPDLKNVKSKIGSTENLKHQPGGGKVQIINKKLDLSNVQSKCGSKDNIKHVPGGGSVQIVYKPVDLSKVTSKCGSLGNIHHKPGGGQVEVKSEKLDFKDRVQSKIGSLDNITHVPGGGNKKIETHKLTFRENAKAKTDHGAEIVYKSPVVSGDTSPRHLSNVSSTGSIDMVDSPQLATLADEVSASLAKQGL
Protocol: Fluorescence measurements were performed with a Horiba Jobin Yvon FluoroMax-3 spectrofluorometer. […] For experiments, the excitation wavelength was fixed at 275 nm, and the emission spectra were recorded between 280 nm and 500 nm at room temperature. The inner filter effects were corrected according to Lakowicz as follows:F = Fobs × exp{(Aem + Aex)/2}(2) where Fobs and F are the observed and corrected fluorescence values at the emission wavelength of 303 nm. Aex and Aem are the absorptions at the excitation and emission wavelengths, respectively, calculated with A = ε.l.C, in which ε is the extinction coefficient of Tau, l is the path length of cuvette, and C is Tau concentration.
The total fluorescence in the absence of quencher (F0) is given by:F0 = F0a + F0b(4) where 0 refers to the fluorescence intensity in the absence of quencher.
In the presence of quencher, we defined fa as the fraction of the initial fluorescence of Tau accessible to compounds:fa = F0a/(F0a + F0b)(5)
Therefore, the intensity of the accessible fraction (fa) is decreased according to the Stern–Volmer equation, whereas the buried fraction is not quenched, as given by:F = {F0a/(1 + K.[Q])} + F0b(6)
Then, subtraction of Equations (6) and (4) yields:ΔF = F0 − F = F0a × {K.[Q]/(1 + K.[Q])}(7)
At last, inversion of Equation (7) followed by division into Equation (4) yields:F0/ΔF = {1/(fa.K.[Q])} + 1/fa(8)
We applied this modified form of the Stern–Volmer equation to graphically determine the values of fa and K. For our experiments, we plotted F0/ΔF against 1/[Q], then we determined the fa value at the point of intersection with the y-axis, while the slope represented (faK)^−1.

U138 glioblastoma cells = experiment: MTT cell viability assay, U138; assay type: cell-based; settings: Homo sapiens, U138, 72 h, mean ± SEM, read-out: IC50 (metabolic activity)
Protocol: as §3

[6] = test system: Caco-2 colon adenocarcinoma cells; experiment: MTT cell viability assay, Caco-2; assay type: cell-based; settings: Homo sapiens, Caco-2 (not expressing Tau), 72 h, mean ± SEM, read-out: IC50 (metabolic activity)
Protocol: as §3

U87 glioblastoma cells = experiment: MTT cell viability assay, U87; assay type: cell-based, human; settings: Homo sapiens; U87, 72 h, MTT; mean ± SEM; read-out: IC50 (metabolic activity)
Protocol: as §3

[7] = target: T2, full-length human Tau (hTau40) (Homo sapiens, UniProt P10636); experiment: Tau oligomerization inhibition assay (heparin-induced, thioflavin S fluorescence); assay type: biochemical
T2 construct: The full-length human Tau (hTau40) was expressed in a transformed E. coli BL21 (DE3) strain; made in house; host or cells: E. coli BL21 (DE3)
T2 sequence (P10636 1-441 isoform P10636-8): as above
Protocol: Tau oligomerization inhibition assay was performed at 37 °C in 96-well plates by monitoring thioflavin-S fluorescence at 520 nm after excitation at 440 nm using a microplate reader (POLARstar Omega system, BMG Labtech, Paris, France). The Tau oligomerization process was induced by heparin. […] The plates were shaken at 200 rpm for 10 s before each measurement. The real value of fluorescence at the plateau was determined using SciDAVis v1.23 software. Data were fitted to the SciDAVis built-in ExpGrowth equation by means of nonlinear least-squares regression analysis. Y = Y0 + A × exp(x/t)(1)
The unscaled Levenberg–Marquardt algorithm was used, and initial values were given to Y0, A, and t. The final Y0 value of the model corresponds to the plateau value. The plateau values were then used to calculate the Tau oligomerization inhibition percentage. The IC50 for each compound was calculated from the scatter plot of Tau oligomerization inhibition (in percentage) as a function of log10 of compound concentration. The IC50 value (in µM) thus corresponds to ten raised to the power of […].

mature Tau aggregates = target: T3, mature Tau aggregates (Homo sapiens, UniProt P10636); experiment: Dissolution of preformed (mature) Tau aggregates, ThS fluorescence; assay type: biochemical; settings: 10, 30 and 100 µM added to ThS-labelled aggregates after 8 h, 37 °C
T3 construct: The full-length human Tau (hTau40) was expressed in a transformed E. coli BL21 (DE3) strain; made in house; host or cells: E. coli BL21 (DE3)
T3 sequence (P10636 1-441 isoform P10636-8): as above
Protocol: Moreover, we performed a qualitative study of the ability of QCT and compounds 1, 5, and 9 to dissolve preformed Tau aggregates (Figure 3).
Eight-hour time courses were performed with ThS to monitor heparin-induced Tau aggregation by spectrofluorometry at 520 nm (37 °C), then 10, 30, and 100 µM of compounds (curves b–d) were added to the ThS-labelled Tau aggregates. A control was performed without compound (curve a).

U251 glioblastoma cells = experiment: MTT cell viability assay, U251; assay type: cell-based; settings: Homo sapiens, U-251, U251, 72 h, mean ± SEM, read-out: IC50 (metabolic activity)
Protocol: as §3

[8] = test system: GBM cells (U87, U251, U138, and T98G); experiment: MTT assay across the Tau-expressing GBM cell models; assay type: cell-based, human
Protocol: as §3

[9] = 2 µM Tau, heparin-induced, ThS, buffer A pH 6.9, 25 °C per table footnote (37 °C in method), mean ± SD, read-out: Inhibition of Aggregation IC50

Row | IC50 (T98G glioblastoma cells) | Equilibrium Binding Constants to Tau, fA (Tyr accessible fraction) [5] | Kd [5] | IC50 (U138 glioblastoma cells) | IC50 (U87 glioblastoma cells) | IC50 (U251 glioblastoma cells) | IC50 ([8]; Homo sapiens, U87, U251, U138, T98G, 72 h MTT, read-out: IC50 among the Tau-expressing GBM cell models) | IC50 [7, 9] | SMILES | %G1 (cells in G1 phase) (U87 shCTRL cells [1]) | %G2/M (cells in G2/M phase) (U87 shCTRL cells [1]) | mitotic index (U87 shTau cells [2]) | mitotic index (U87 shCTRL cells [3]) | %G1 (cells in G1 phase) (U87 shTau cells [4]) | %G2/M (cells in G2/M phase) (U87 shTau cells [4]) | R3 peptide fibrillation (R3 peptide) | IC50 [6] | IC50 [7] | Ability to dissolve mature (preformed) Tau aggregates (mature Tau aggregates) | efficacy fold higher than 13 and 15 ([8]; GBM cells)
1 | – | – | – | – | – | – | – | – | COC(=O)Nc1nc2ccc(C(=O)c3cccs3)cc2[nH]1 [NOC, nocodazole, reference compound] | 10 ± 3% | 82 ± 6% | 23.0 ± 4.01% | 9.38 ± 3.55% | 9 ± 7% | 77 ± 4% | – | – | – | – | –
2 | 4.2 ± 0.7 µM | 0.39 ± 0.08 | 7 ± 2.3 µM | 6.4 ± 1.3 µM | 22.4 ± 5.2 µM | 6.7 ± 2.2 µM | 4.2 to 22.4 µM | 92 ± 9.6 µM | Nc1nc(-c2ccc3oc(-c4ccccc4)cc(=O)c3c2)cs1 [Compound 1] | – | – | – | – | – | – | – | 33.2 ± 13.3 µM | – | able to dissolve mature Tau aggregates | –
3 | 2.7 ± 0.5 µM | 0.21 ± 0.04 | 4.2 ± 0.3 µM | 1.4 ± 0.2 µM | 1.1 ± 0.2 µM | 1.3 ± 0.5 µM | – | 11.7 ± 2 µM | COc1c(-c2cccc(F)c2)oc2ccc3nc(N)sc3c2c1=O [Compound 14] | – | – | – | – | – | – | – | – | – | – | up to 6 fold

Row | SMILES | IC50 (T98G glioblastoma cells) | Equilibrium Binding Constants to Tau, fA (Tyr accessible fraction) [5] | Kd [5] | IC50 (U138 glioblastoma cells) | IC50 (U87 glioblastoma cells) | IC50 (U251 glioblastoma cells) | IC50 ([8]; Homo sapiens, U87, U251, U138, T98G, 72 h MTT, read-out: IC50 among the Tau-expressing GBM cell models) | IC50 [7, 9] | %G1 (cells in G1 phase) (U87 shCTRL cells [1]) | %G2/M (cells in G2/M phase) (U87 shCTRL cells [1]) | mitotic index (U87 shTau cells [2]) | mitotic index (U87 shCTRL cells [3]) | %G1 (cells in G1 phase) (U87 shTau cells [4]) | %G2/M (cells in G2/M phase) (U87 shTau cells [4]) | R3 peptide fibrillation (R3 peptide) | IC50 [6] | IC50 [7] | Ability to dissolve mature (preformed) Tau aggregates (mature Tau aggregates) | efficacy fold higher than 13 and 15 ([8]; GBM cells)
4 | O=c1c(O)c(-c2ccc(O)c(O)c2)oc2cc(O)cc(O)c12 [QCT, quercetin, reference compound] | > 100 µM | 0.12 ± 0.04 | 2.4 ± 0.6 µM | > 100 µM | > 100 µM | > 100 µM | – | – | – | – | – | – | – | – | abrogated R3 peptide fibrillation | > 100 µM | 17.3 ± 0.6 µM | able to dissolve mature Tau aggregates | –
